Test results: publication PMC10745968 (Molecules, 2023)

What was measured:
Escherichia coli = type: cell-based
Salmonella typhi = type: cell-based
Aspergillus flavus = type: cell-based; settings: 5 days
Aspergillus niger = type: cell-based; settings: 5 days
Pseudomonas aeruginosa = type: cell-based
brine shrimp nauplii = settings: in vivo
Bacillus subtilis = type: cell-based
Staphylococcus aureus = type: cell-based
Bacillus cereus = type: cell-based

SMILES	Diameter of Inhibition Zone (Escherichia coli)	Diameter of Inhibition Zone (Salmonella typhi)	% Inhibition of Fungal Mycelial Growth in mm (20 μg/μL) (Aspergillus flavus)	% Inhibition of Fungal Mycelial Growth in mm (20 μg/μL) (Aspergillus niger)	Diameter of Inhibition Zone (Pseudomonas aeruginosa)	death rate (brine shrimp) (brine shrimp nauplii)	Diameter of Inhibition Zone (Bacillus subtilis)	Diameter of Inhibition Zone (Staphylococcus aureus)	Diameter of Inhibition Zone (Bacillus cereus)
CCCCCCCC(=O)O[C@@H]1[C@H](OC(=O)CCCCCCC)[C@@H](OC)O[C@H](COC(=O)C=Cc2ccccc2)[C@H]1OC(=O)CCCCCCC [Compound 4, Methyl 6-O-cinnamoyl-2,3,4-tri-O-octanoyl-α-D-mannopyranoside]	11.53 ± 0.2 mm	10.23 ± 0.5 mm	* 98.47 ± 1.0%	* 96.22 ± 1.1%	09.19 ± 0.6 mm	36.10-37.03%	10.51 ± 0.6 mm		
CC[C@H]1OC(=O)[C@H](C)[C@@H](O[C@H]2C[C@@](C)(OC)[C@@H](O)[C@H](C)O2)[C@H](C)[C@@H](O[C@@H]2O[C@H](C)C[C@H](N(C)C)[C@H]2O)[C@](C)(O)C[C@@H](C)CN(C)[C@H](C)[C@@H](O)[C@]1(C)O [Azithromycin, reference compound]	** 17.25 ± 0.1 mm	** 18.0 ± 0.2 mm			** 18.5 ± 0.3 mm		** 18.5 ± 0.3 mm	** 17.75 ± 0.3 mm	** 17.22 ± 0.3 mm
CO[C@H]1O[C@H](COC(=O)C=Cc2ccccc2)[C@@H](O)[C@H](O)[C@@H]1O [Compound 2, Methyl 6-O-cinnamoyl-α-D-mannopyranoside]		12.41 ± 0.3 mm				27.07%		11.75 ± 0.3 mm	07.11 ± 0.5 mm
CO[C@H]1O[C@H](COC(=O)/C=C/c2ccccc2)[C@@H](OS(=O)(=O)c2ccc(C)cc2)[C@H](OS(=O)(=O)c2ccc(C)cc2)[C@@H]1OS(=O)(=O)c1ccc(C)cc1 [Compound 5, Methyl 2,3,4-tri-O-p-toluenesulfonyl-6-O-cinnamoyl-α-D-mannopyranoside]	9.00 ± 0.2 mm		* 81.30 ± 1.0%	57.62 ± 1.1%	12.36 ± 0.2 mm		12.15 ± 0.7 mm		08.10 ± 0.3 mm
CCCCCCC(=O)O[C@@H]1[C@H](OC(=O)CCCCCC)[C@@H](OC)O[C@H](COC(=O)C=Cc2ccccc2)[C@H]1OC(=O)CCCCCC [Compound 3, Methyl 2,3,4-tri-O-heptanoyl-6-O-cinnamoyl-α-D-mannopyranoside]	10.25 ± 0.2 mm								
C[C@@H]1[C@H](O)[C@@H](C)/C=C/C=C/CC/C=C/C=C/C=C/C=C/C(O[C@H]2O[C@H](C)[C@@H](O)[C@H](N)[C@@H]2O)CC2O[C@](O)(CC(O)C(O)CCC(O)CC(O)CC(O)CC(=O)O[C@H]1C)CC(O)C2C(=O)O (stereo partly shown) [Nystatin, nystatin, reference compound]			** 64.1 ± 1.0%	** 65.4 ± 1.0%					
CO[C@H]1O[C@H](COC(=O)C=Cc2ccccc2)[C@@H](OS(=O)(=O)c2ccccc2)[C@H](OS(=O)(=O)c2ccccc2)[C@@H]1OS(=O)(=O)c1ccccc1 [Compound 6, Methyl 6-O-cinnamoyl-2,3,4-tri-O-benzenesulfonyl-α-D-mannopyranoside]	9.00 ± 0.3 mm	9.17 ± 0.1 mm			8.50 ± 0.2 mm	36.10-37.03%	10.13 ± 0.8 mm		
